# Source: ChEMBL document CHEMBL4359935, “Selective toxicity of chrysin on mitochondria isolated from liver of a HCC rat model” (Bioorg Med Chem, 2019)
# Calls of active or inactive are those of the source. The rule behind the calls is not given here.
# Key:
# [1] = Induction of ROS production in Sprague-Dawley rat hepatocyte mitochondria at 10 to 40 uM incubated upto 60 mins by DCFH probe based fluorescence spectrophotometry; conditions: hepatocytes, 1 h
# [2] = Induction of mitochondrial swelling in Sprague-Dawley rat hepatocyte at 10 to 40 uM; conditions: hepatocytes
# [3] = Effect on SDH activity in Sprague-Dawley rat hepatocyte mitochondria at 10 to 40 uM incubated for 40 mins by MTT assay; assay type: ADME; conditions: hepatocytes
# [4] = system: Hepatocyte; test: Induction of apoptosis in isolated HCC model Sprague-Dawley rat hepatocytes assessed as increase in caspase 3 activity at 12 uM relative to control; assay type: functional
# [5] = system: Hepatocyte; test: Induction of apoptosis in isolated HCC model Sprague-Dawley rat hepatocytes assessed as increase in cytochrome C release at 20 uM in presence of CsA by ELISA; assay type: functional, cell-based
# [6] = Induction of mitochondrial membrane potential disruption in Sprague-Dawley rat hepatocyte assessed as collapsed mitochondrial membrane potential at 10 to 40 uM incubated upto 60 mins by Rhodamine 123 probe based fluorescence spectrophotometry; conditions: hepatocytes, 1 h
# [7] = molecular target: Succinate dehydrogenase [ubiquinone] flavoprotein subunit, mitochondrial (Rattus norvegicus) (UniProt Q920L2); test: Inhibition of SDH in HCC model Sprague-Dawley rat hepatocyte mitochondria at 10 to 40 uM incubated for 40 mins by MTT assay
# Chain of Succinate dehydrogenase [ubiquinone] flavoprotein subunit, mitochondrial (Rattus norvegicus) (Q920L2 whole entry): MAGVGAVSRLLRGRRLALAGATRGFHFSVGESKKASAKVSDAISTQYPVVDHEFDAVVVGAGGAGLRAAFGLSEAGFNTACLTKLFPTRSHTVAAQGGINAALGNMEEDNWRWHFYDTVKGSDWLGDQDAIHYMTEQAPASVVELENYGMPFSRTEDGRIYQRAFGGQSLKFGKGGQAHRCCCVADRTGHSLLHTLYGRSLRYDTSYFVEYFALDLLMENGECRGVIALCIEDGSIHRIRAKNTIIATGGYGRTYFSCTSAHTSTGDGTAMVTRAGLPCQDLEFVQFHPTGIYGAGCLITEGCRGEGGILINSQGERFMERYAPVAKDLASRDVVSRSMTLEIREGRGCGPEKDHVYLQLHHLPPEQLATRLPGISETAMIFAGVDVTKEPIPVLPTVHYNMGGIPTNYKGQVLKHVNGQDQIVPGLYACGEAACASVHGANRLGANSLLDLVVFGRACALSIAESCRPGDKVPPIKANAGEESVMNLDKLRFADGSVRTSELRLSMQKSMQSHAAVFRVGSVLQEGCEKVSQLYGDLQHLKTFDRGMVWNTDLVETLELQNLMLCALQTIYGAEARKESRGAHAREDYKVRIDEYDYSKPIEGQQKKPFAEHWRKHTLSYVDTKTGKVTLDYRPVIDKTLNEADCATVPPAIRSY
# [8] = species: Rattus norvegicus; test: Induction of ROS production in HCC model Sprague-Dawley rat hepatocyte mitochondria at 10 to 40 uM incubated upto 60 mins by DCFH probe based fluorescence spectrophotometer; assay type: functional
# [9] = system: Hepatocyte; test: Induction of apoptosis in isolated HCC model Sprague-Dawley rat hepatocytes assessed as increase in cytochrome C release at 20 uM in presence of BHT by ELISA; assay type: functional, cell-based
# [10] = species: Rattus norvegicus; test: Induction of mitochondrial swelling in HCC model Sprague-Dawley rat hepatocyte at 10 to 40 uM; assay type: functional
# [11] = species: Rattus norvegicus; test: Induction of mitochondrial membrane potential disruption in HCC model Sprague-Dawley rat hepatocyte assessed as collapsed mitochondrial membrane potential at 10 to 40 uM incubated upto 60 mins by Rhodamine 123 probe based fluorescence spectrophotometry; assay type: functional
# [12] = system: Hepatocyte; test: Induction of apoptosis in isolated HCC model Sprague-Dawley rat hepatocytes assessed as increase in cytochrome C release at 20 uM by ELISA relative to control; assay type: functional
smiles,measurement,setting,value
O=c1cc(-c2ccccc2)oc2cc(O)cc(O)c12 [CHRYSIN],Activity,[1],Non-Toxic
same,Activity,[2],Non-Toxic
same,Activity,[3],Non-Toxic
same,fold change (FC),[4],2.4
same,Activity,[5],inactive
same,Activity,[6],Non-Toxic
same,inhibition,[7],Active
same,Activity,[8],Active
same,Activity,[9],inactive
same,Activity,[10],Active
same,Activity,[11],Active
same,fold change (FC),[12],1.6
